The text below walks through data of patent publication US6248716A, “Peptide, a method for its preparation and a pharmaceutical composition containing the peptide” (priority 1999, dated 2001).

Series [1] can be described thus: Weight gain in chickens (cockerels). It is filed as in vivo, P-46 breed. The procedure: The effect of the peptide on weight gain in chickens was examined. Tests were conducted on chickens of egg oriented productivity, "P-46" breed. 24 hour old cockerels were divided in 5 groups, 13 cockerels in each--one control group and 4 test groups.
The birds were given a full diet till they reached the age of 10 weeks. 100% of birds in both the control and test groups survived.
After 10 weeks, the cockerels were killed and examined.
Quality of the cockerel meat was tested on an organoleptic basis.

The nature of another series: Weight gain in pigs. It is filed as in vivo. The procedure:
The purpose of the first stage of testing was to determine the optimal dose of the peptide necessary to achieve the desired weight gain and the most beneficial manner of administering the peptide. The first stage of testing was conducted over a period of 100 days.
The pigs were divided into seven groups of ten animals each. The animals were all aged 4-5 months, and weighed about the same. There was one control group and six test groups. All the groups were given an ordinary diet.
Test groups 2, 3, and 4 were administered the peptide (1.0, 5.0, 10.0 μg kg/body weight) with feed, for 20 days each month with a 10 day break. Test groups 5, 6, and 7 were administered the peptide by injections of 0.01% water solutions for five days each month with a 25 day break (0.1, 0.5 and 1.0 μg per body weight).
Physiological examinations and biochemical tests were carried out during the experiment. The pigs were weighed on the 30th, 65th and 100th days of the experiment. […] Administration of 1 μg per 1 kg of body weight by intramuscular injections achieved a weight gain 18% higher than the control group (group 6).
The second stage of the experiment lasted 95 days, after which the animals were killed. The second stage of the experiment was carried out only with groups three and six, in order to determine which method of administration of the peptide produced the best results. […]

Series [2] in a line: Weight gain in young bulls. The series is classed as in vivo. To be noted: during the experiment. The method, then: There were 7 groups of animals having approximately the same weight, with 12 young bulls in each group. The age of the animals was 2 months. There were 6 test groups and one control. The test animals were administered Sedatin with water before they were fed or as intramuscular injections in the amounts shown in Table 12. All animals received the same diet and were kept in the same conditions. Two animals in the control group fell ill during the experiment, and were replaced by analogs.
Two groups, one control and one test, were chosen for the second stage of the experiment. The test group was administered the peptide mixed with feed, in the amount of 10 μg per 1 kg of body weight. The control group was not administered any of the peptide. The data was biometrically processed.

Non-standard residues stand in square brackets, D forms with d. Residues, ends and D or L forms follow the SMILES beside them.

For the molecule `C[C@@H](NC(=O)[C@H](Cc1ccc(O)cc1)NC(=O)[C@@H](N)CCCNC(=N)N)C(=O)N[C@@H](Cc1ccccc1)C(=O)NCC(=O)O` [H-Arg-Tyr-D-Ala-Phe-Gly-OH] (H-RY[dA]FG-OH), the “quality of cockerel meat (colour, smell, consistency, taste), organoleptic” value in series [1] (all groups) was “the same as in the control group”. In addition, the birds survived in series [1] (test groups, to age of 10 weeks) was 100%. Also, in “Weight gain in pigs”, the “biochemical and physicochemical tests” value is given as “no deviation from the control group”; the “quality characteristics (pathological changes, decrease of fat layer, etc.)” value is “No changes were observed”. Moreover, the “temperature, pulse and breath-rate” value in series [2] was “no deviation from the control group”. The solubility in alcohol entry (alcohol) is on record as “slightly soluble”. The solubility in chloroform result (chloroform) is on record as “practically insoluble”. Moreover, the solubility in water entry (water) is “soluble”.
